The subject of this assay is Plasmodium falciparum. Briefly: Antimalarial activity against Plasmodium falciparum. The assay is classed as functional.
For `COc1ccc(C2(OC)C=CC(C3CCCCC3)(C3CCCCC3)OC2)cc1` (centres undefined), the logIC50 is 2.255.
On to `COc1ccc(C2(OC)C=CC(C3CCCCCC3)(C3CCCCCC3)OC2)cc1` (centres undefined), for which the logIC50 is 2.322.
Consider `COc1cc(C2(OC)C=CC(C3CCCCCC3)(C3CCCCCC3)OC2)cc(OC)c1OC` (centres undefined), for which the logIC50 is given as 2.079.
`COC1(c2ccc(OC(F)(F)F)cc2)C=CC(C2CCCCCC2)(C2CCCCCC2)OC1` (centres undefined) gave a logIC50 of 1.785.
Compound `COC1(c2ccc(Cl)cc2)C=CC(C2CCCCCC2)(C2CCCCCC2)OC1` (centres undefined) gave a logIC50 of 1.763.
`COC1(c2ccc(F)cc2)C=CC(C2CCCCCC2)(C2CCCCCC2)OC1` (centres undefined) had a logIC50 of 1.929.
In the case of `COC1(c2ccc(SC)cc2)C=CC(C2CCCCCC2)(C2CCCCCC2)OC1` (centres undefined), the logIC50 amounted to 1.892.
The value for `COC1(c2ccc(S(C)(=O)=O)cc2)C=CC(C2CCCCCC2)(C2CCCCCC2)OC1` (centres undefined) was 1.491; that for `CCc1ccc(C2(OC)C=CC(C3CCCCCC3)(C3CCCCCC3)OC2)cc1` (centres undefined) was 2.255.
`COC1(c2ccc(SC)cc2)C=CC(C2CCCCC2)(C2CCCCC2)OC1` (centres undefined) yielded a logIC50 of 2.204.
Regarding `COC1(c2ccc(S(C)(=O)=O)cc2)C=CC(C2CCCCC2)(C2CCCCC2)OC1` (centres undefined), the logIC50 was found to be 1.748.
In turn, `COC1(c2ccc([N+](=O)[O-])cc2)C=CC(C2CCCCC2)(C2CCCCC2)OC1` (centres undefined) had a logIC50 of 1.663.
As to `COC1(c2ccc(Cl)cc2)C=CC(C2CCCCC2)(C2CCCCC2)OC1` (centres undefined), the logIC50 is 2.
Compound `COC1(c2ccc(F)cc2)C=CC(C2CCCCC2)(C2CCCCC2)OC1` (centres undefined) displayed a logIC50 of 2.301.
Regarding `COC1(c2ccc(C(F)(F)F)cc2)C=CC(C2CCCCC2)(C2CCCCC2)OC1` (centres undefined), the logIC50 is reported as 2.146.
The value for `COC1(c2ccccc2)C=CC(C)(C)OC1` (centres undefined) was 3.041.
`COC1(c2ccccc2)C=CC(C2CCCC2)(C2CCCC2)OC1` (centres undefined) had a logIC50 of 2.279.
Next, `COC1(c2ccccc2)C=CC(C2CCCCC2)(C2CCCCC2)OC1` (centres undefined): 2.447; `COC1(c2ccccc2)C=CC(C2CCCCCC2)(C2CCCCCC2)OC1` (centres undefined): 2.342.

The record behind these values is ChEMBL document CHEMBL3045536, “Prediction of antimalarial activity of some cyclic peroxy ketals using physico-chemical and topological indices” (2012).
